Here are results for four compounds from patent US6342219B1 (Board of Regents, The University of Texas System, priority 1999, dated 2002).

Data set [1] concerns cancer patients having progressive disease. As to conditions: patients having progressive disease before treatment; cited from earlier work.
For the next data set, the system named is VEGFR2 (KDR/Fc). The data set is described as follows: Coprecipitation assay, VEGFR2/Fc. As to conditions: 40 ng VEGF, 200 ng receptor/Fc. Type of data set: binding. As to the method:
200 ng of soluble forms of VEGFR1 (Flt-1/Fc) or VEGFR2 (KDR/Fc, R&D Systems, Minneapolis, Minn.) were added for a total volume of 50 μl and incubated for 2 hrs. The receptor/Fc constructs were precipitated using Protein A-sepharose beads and the resulting precipitate was washed 4 times with binding buffer.
Reducing sample buffer was added to the pellet and supernatant of each reaction and both were analyzed by 12% SDS-PAGE and transferred to PVDF membranes. […] The soluble receptor/Fc constructs were also detected by using peroxidase-conjugated goat anti-human Fc (Kirkegaard & Perry Laboratories, Inc.)
The receptor/Fc constructs were precipitated by incubation with Protein A sepharose beads. The precipitate was washed and resuspended in reducing sample buffer and separated by 12% SDS-PAGE and transferred to PVDF.

The target in another data set is T1, β-glucuronidase (GUS) (Escherichia coli, UniProt P05804).
T1 construct: made in house; host or cells: E. coli M15 cells
Kind of data set: Enzymatic activity of the GUS portion. It counts as biochemical, E. coli. The text has this: The 6-His GUS was pure based upon SDS-PAGE, where it ran as a single band of 75 kDa band. On gel filtration columns, the 6-His GUS runs as a tetramer of about 300 kDa.
The biological activity of each component of the 2C3-GUS conjugate was confirmed.

A short description of data set [2]: Blood clearance of radioiodinated 2C3-GUS. As to conditions: mice, intravenous injection, 125I-labelled. It counts as in vivo. The text has this:
2C3-GUS was radioiodinated with ^125I to a specific activity of 5×10^6 cpm/μg.

Data set [3] has as its system human NCI-H358 NSCLC tumors. Type of data set: in vivo, SCID mice.
The next data set has as its target VEGFR1 (Homo sapiens, UniProt P17948). As to conditions: read-out: Kd of VEGF binding to VEGFR1; Terman et al., 1994; cited from earlier work.

For orientation: Kd means the free concentration of one partner at which half of the binding sites on the other are occupied at equilibrium, for simple one-to-one binding.

Chain of VEGFR1 (P17948 27-1338): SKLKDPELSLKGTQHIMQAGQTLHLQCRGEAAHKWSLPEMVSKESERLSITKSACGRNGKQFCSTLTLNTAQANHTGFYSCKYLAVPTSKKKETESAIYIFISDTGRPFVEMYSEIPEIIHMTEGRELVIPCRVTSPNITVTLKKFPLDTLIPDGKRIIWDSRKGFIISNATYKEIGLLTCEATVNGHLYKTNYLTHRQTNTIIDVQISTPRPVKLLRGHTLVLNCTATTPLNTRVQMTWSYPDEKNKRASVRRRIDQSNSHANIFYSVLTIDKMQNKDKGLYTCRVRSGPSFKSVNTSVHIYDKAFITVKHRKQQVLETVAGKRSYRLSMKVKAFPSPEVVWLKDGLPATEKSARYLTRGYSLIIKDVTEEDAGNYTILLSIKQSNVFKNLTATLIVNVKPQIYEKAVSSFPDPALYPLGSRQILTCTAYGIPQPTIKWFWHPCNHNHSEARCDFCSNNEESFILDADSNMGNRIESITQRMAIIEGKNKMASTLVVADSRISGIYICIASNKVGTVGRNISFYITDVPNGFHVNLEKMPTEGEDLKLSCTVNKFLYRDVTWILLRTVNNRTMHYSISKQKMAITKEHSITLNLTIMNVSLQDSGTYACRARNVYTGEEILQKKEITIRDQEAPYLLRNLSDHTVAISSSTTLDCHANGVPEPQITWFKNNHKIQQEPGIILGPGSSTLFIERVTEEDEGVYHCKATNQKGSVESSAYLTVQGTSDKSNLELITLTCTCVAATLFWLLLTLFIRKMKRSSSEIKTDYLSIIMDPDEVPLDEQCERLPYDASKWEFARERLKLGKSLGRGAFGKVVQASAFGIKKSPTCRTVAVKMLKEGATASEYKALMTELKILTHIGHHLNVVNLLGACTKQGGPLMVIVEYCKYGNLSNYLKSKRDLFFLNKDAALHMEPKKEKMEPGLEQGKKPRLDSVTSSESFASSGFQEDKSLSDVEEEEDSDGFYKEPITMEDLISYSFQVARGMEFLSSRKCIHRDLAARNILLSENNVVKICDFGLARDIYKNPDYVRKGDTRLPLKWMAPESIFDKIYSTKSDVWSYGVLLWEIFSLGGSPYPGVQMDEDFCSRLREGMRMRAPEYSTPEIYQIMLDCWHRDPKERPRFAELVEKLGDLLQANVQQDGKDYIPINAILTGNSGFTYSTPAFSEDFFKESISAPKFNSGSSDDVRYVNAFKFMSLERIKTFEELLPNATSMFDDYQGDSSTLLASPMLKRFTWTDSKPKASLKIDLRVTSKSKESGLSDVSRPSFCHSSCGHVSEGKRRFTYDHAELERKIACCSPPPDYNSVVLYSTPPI
T1 sequence (P05804 whole entry): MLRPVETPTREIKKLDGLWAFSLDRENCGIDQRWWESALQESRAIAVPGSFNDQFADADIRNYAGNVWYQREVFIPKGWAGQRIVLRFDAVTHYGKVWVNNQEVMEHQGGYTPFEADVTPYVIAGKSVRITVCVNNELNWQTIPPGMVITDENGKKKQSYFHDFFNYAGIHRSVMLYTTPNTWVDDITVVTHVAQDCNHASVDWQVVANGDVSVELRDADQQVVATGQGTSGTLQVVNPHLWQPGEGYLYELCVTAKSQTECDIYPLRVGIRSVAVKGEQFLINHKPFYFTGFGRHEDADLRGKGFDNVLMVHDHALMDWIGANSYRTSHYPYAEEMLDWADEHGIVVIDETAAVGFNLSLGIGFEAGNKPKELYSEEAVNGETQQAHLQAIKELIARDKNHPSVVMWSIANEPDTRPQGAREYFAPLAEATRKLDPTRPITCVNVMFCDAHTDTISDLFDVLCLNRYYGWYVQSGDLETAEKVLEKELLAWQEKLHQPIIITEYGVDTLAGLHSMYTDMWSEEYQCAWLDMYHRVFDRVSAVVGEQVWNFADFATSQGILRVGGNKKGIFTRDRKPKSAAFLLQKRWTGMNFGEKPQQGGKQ

With `NC(=O)c1nnn(Cc2cc(Cl)c(C(=O)c3ccc(Cl)cc3)c(Cl)c2)c1N` [CAI, carboxyamidotriazole], the “Disease stabilization, share of cancer patients” value in data set [1] is reported as 49%.
2C3 F(ab′)2: F(ab′)2 of 2C3: the “Blocking of VEGF binding to VEGFR2/Fc in solution” value in the data set on VEGFR2 (KDR/Fc) is “blocked”.
Consider 2C3-GUS [Clone 2C3-GUS], for which the “Enzymatic activity of the GUS portion” value with β-glucuronidase (GUS) is reported as “retained enzymatic activity”. Besides, in data set [2], the “t½ α” value is given as “about 6 hours” and the “t½ β” value is “about 25 hours”. Moreover, in data set [3] (SCID mice bearing subcutaneous NCI-H358), the “Localization after i.v. injection” value is “specifically localized to tumor vasculature and surrounding tumor stroma”. For the same compound, the “Staining of normal tissues” value in data set [3] (mouse, in vivo) is listed as “unstained”. Further, in data set [3] (mouse, in vivo, sc), the “Time of maximal localization after injection” value is 24 to 48 h.
As for VEGF, the Kd at VEGFR1 is 0.015 to 0.1 nM.
